Active and inactive are the calls of the source. The calls are words filed in the database; no cut-off is given here.
Experiments:
[1] = target: T1, Delta-type opioid receptor (Mus musculus, UniProt P32300); test: Antagonist activity at mouse delta opioid receptor-1 expressed in CHO cell membranes assessed as inhibition of DPDPE-induced [35S]GTPgammaS binding incubated for 60 mins by scintillation spectroscopic analysis; type: functional
[2] = target: T1, Delta-type opioid receptor; test: Displacement of [125I]-IBNtxA from mouse delta opioid receptor-1 expressed in CHO cell membranes incubated for 90 mins
[3] = target: Mu-type opioid receptor (Mus musculus, UniProt P42866); test: Agonist activity at mouse mu opioid receptor-1 expressed in CHO cell membranes assessed as [35S]GTPgammaS binding incubated for 60 mins by scintillation spectroscopic analysis; type: functional
Sequence of Mu-type opioid receptor (Mus musculus, UniProt P42866) (P42866 whole entry): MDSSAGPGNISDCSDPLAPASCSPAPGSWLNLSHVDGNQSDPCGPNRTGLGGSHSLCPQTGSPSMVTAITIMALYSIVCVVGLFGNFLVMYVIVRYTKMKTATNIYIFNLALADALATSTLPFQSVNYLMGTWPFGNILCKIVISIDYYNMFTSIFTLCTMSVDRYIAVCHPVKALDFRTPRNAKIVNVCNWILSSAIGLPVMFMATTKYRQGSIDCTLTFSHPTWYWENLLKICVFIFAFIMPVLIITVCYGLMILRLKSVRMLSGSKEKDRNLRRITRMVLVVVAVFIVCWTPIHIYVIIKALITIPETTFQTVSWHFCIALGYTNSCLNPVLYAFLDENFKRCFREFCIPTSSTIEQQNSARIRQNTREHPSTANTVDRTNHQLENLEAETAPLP

[4] = target: Kappa-type opioid receptor (Mus musculus, UniProt P33534); test: Antagonist activity at mouse kappa opioid receptor-1 expressed in CHO cell membranes assessed as inhibition of U50,488H-induced [35S]GTPgammaS binding incubated for 60 mins by scintillation spectroscopic analysis; type: functional
Sequence of Kappa-type opioid receptor (P33534 whole entry): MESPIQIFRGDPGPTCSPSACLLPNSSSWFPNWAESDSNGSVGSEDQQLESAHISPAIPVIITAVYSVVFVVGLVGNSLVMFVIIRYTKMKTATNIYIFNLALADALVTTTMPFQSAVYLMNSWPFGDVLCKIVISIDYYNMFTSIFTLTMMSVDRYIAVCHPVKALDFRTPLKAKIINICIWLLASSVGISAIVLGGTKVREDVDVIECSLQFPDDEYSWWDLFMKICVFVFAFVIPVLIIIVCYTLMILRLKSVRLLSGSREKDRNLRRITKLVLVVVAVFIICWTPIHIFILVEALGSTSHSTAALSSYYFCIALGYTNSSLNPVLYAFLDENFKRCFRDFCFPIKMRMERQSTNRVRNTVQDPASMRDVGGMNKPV

[5] = target: 5-hydroxytryptamine receptor 7 (Homo sapiens) (UniProt P34969); test: Displacement of [3H]LSD from recombinant human 5HT7A receptor expressed in HEK cell membrane after 90 mins by microbeta scintillation counting method
Sequence of 5-hydroxytryptamine receptor 7 (Homo sapiens) (P34969 whole entry): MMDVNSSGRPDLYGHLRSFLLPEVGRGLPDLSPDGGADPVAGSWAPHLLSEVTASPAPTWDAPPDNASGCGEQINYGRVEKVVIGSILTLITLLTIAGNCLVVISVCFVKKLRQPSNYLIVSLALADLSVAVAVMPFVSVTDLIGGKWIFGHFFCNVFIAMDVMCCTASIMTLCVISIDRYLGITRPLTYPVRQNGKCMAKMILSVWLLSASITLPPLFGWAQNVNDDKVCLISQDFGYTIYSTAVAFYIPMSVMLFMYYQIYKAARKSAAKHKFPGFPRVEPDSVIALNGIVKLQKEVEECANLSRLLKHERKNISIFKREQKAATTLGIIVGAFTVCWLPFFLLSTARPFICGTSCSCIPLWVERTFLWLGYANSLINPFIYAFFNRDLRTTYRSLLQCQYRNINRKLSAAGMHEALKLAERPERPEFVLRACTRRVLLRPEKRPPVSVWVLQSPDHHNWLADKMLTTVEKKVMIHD

[6] = target: T2, Alpha-2A adrenergic receptor (Homo sapiens) (UniProt P08913); test: Displacement of [3H]rauwolscine from recombinant human adrenergic alpha2A receptor expressed in MDCK cell membrane after 90 mins by microbeta scintillation counting method
T2 sequence (whole entry): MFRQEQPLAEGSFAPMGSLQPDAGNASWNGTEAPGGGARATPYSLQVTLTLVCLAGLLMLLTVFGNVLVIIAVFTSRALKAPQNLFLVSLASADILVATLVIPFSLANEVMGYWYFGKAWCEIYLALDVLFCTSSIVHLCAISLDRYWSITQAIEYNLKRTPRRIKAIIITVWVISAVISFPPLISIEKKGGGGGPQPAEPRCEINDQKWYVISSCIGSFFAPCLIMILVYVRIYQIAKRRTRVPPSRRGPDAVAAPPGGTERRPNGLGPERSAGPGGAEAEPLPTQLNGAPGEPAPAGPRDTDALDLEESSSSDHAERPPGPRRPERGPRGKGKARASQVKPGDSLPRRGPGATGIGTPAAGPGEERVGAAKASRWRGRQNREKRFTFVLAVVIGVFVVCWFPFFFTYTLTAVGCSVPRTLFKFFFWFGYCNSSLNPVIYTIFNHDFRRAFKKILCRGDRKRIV

[7] = target: T3, Mu-type opioid receptor (Homo sapiens, UniProt P35372); test: Activation of mu opioid receptor-1 (unknown origin) expressed in CHO cells assessed as beta-arrestin-2 recruitment at 10 uM after 90 mins by beta-galactosidase complementation assay; type: cell-based; conditions: 1.5 h
T3 sequence (P35372 whole entry): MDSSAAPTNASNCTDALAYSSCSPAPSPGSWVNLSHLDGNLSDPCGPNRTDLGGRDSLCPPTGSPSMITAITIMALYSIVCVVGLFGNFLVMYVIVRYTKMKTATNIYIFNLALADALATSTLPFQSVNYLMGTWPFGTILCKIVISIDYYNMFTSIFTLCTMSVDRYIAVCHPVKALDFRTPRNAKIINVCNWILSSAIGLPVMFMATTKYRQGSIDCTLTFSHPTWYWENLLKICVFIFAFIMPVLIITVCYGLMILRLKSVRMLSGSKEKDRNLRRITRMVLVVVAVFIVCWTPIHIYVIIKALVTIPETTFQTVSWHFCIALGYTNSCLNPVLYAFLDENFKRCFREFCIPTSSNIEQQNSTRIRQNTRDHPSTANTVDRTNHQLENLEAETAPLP

[8] = target: T3, Mu-type opioid receptor; test: Inhibition of DAMGO-induced beta-arrestin-2 recruitment at mu opioid receptor-1 (unknown origin) expressed in CHO cells preincubated for 30 mins followed by DAMGO addition measured after 90 mins by beta-galactosidase complementation assay; type: cell-based
[9] = system: Mus musculus; test: Potency index, ratio of morphine ED50 to compound ED50 in sc dosed CD-1 mouse; type: functional
[10] = system: Mus musculus; test: Antinociceptive activity in po dosed CD-1 mouse assessed as increase in reaction time administered through gavage measured 15 mins post dose by radiant heat tail flick assay; type: functional; conditions: CD-1, po, 0.25 h
[11] = system: Mus musculus; test: Antinociceptive activity in sc dosed CD-1 mouse assessed as increase in latency latency to respond with hind paw lick or shake/flutter measured 15 mins post dose by hot plate test; type: functional; conditions: CD-1, sc, 0.25 h
[12] = system: Mus musculus; test: Antinociceptive activity in CD-1 mouse assessed as time required for peak effect at 1.5 mg/kg, sc by radiant heat tail flick assay; type: functional
[13] = system: Mus musculus; test: Potency index, ratio of morphine ED50 to compound ED50 in icv dosed CD-1 mouse; type: functional
[14] = system: Mus musculus; test: Antinociceptive activity in 129Sv6 mouse assessed as increase in reaction time at 0.1 to 10 mg/kg, sc measured 15 mins post dose by radiant heat tail flick assay; type: functional, organism-based
[15] = system: Mus musculus; test: Antinociceptive activity in C57BL/6 mouse assessed as increase in reaction time at 0.1 to 10 mg/kg, sc measured 15 mins post dose by radiant heat tail flick assay; type: functional, organism-based
[16] = system: Mus musculus; test: Antinociceptive activity in CD-1 mouse assessed as increase in reaction time at 1.5 mg/kg, sc measured 15 mins post dose in presence of mu opioid receptor antagonist beta-FNA by radiant heat tail flick assay; type: functional, organism-based
[17] = system: Mus musculus; test: Antinociceptive activity in CD-1 mouse assessed as increase in reaction time at 1.5 mg/kg, sc measured 15 mins post dose in presence of delta opioid receptor antagonist NTI by radiant heat tail flick assay; type: functional, organism-based
[18] = system: Mus musculus; test: Antinociceptive activity in CD-1 mouse assessed as increase in reaction time at 1.5 mg/kg, sc administered on day 6 after MOR1-exon1 antisense oligodeoxynucleotide injection on day 1, 3 and 5 by radiant heat tail flick assay; type: functional, organism-based
[19] = system: Mus musculus; test: Antinociceptive activity in CD-1 mouse assessed as increase in reaction time at 1.5 mg/kg, sc administered on day 6 after KOR1-exon2 antisense oligodeoxynucleotide injection on day 1, 3 and 5 by radiant heat tail flick assay; type: functional, organism-based
[20] = system: Mus musculus; test: Antinociceptive activity in MOR-1 7TM/E1 splice variant knock out sc dosed C57BL/6 mouse assessed as increase in reaction time by radiant heat tail flick assay; type: functional; conditions: C57BL/6, sc
[21] = system: Mus musculus; test: Antinociceptive activity in sc dosed C57BL/6 mouse assessed as increase in reaction time by radiant heat tail flick assay; type: functional; conditions: C57BL/6, sc
[22] = Toxicity in CD-1 mouse assessed as time for drug tolerance at 1.5 mg/kg, sc bid at dosing intervals of 12 hrs; type: organism-based; conditions: in vivo
[23] = system: Mus musculus; test: Antinociceptive activity in sc dosed CD-1 mouse assessed as increase in reaction time administered twice daily at dosing intervals of 12 hrs for 29 days by radiant heat tail flick assay; type: functional; conditions: CD-1, sc
[24] = system: Mus musculus; test: Ratio of ED50 for sc dosed CD-1 mouse administered twice daily at dosing intervals of 12 hrs for 29 days to ED50 for sc dosed CD-1 mouse measured 15 mins post dose; type: functional
[25] = Toxicity in CD-1 mouse assessed as physical dependence by measuring number of jumps at 1.5 mg/kg, sc bid for 5 days followed by opioid antagonist naloxone injection on day 5 measured for 15 mins post last dose; type: organism-based; conditions: in vivo, 0.25 h
[26] = Toxicity in CD-1 mouse assessed as inhibition of gastrointestinal transit by measuring distance traveled by charcoal at 4 mg/kg, sc followed by charcoal meal administration measured after 30 mins; type: organism-based; conditions: in vivo, 0.5 h
[27] = Toxicity in C57BL/6 mouse assessed as decrease in respiratory rate at 3 mg/kg, sc measured at 15 to 35 mins post dose relative to control; type: organism-based; set-up: scale not given: the % may be the effect or the level left; conditions: in vivo
[28] = Toxicity in C57BL/6 mouse assessed as conditioned place preference at 1.3 to 3.2 mg/kg/day, ip measured for 30 mins post dose; type: organism-based; conditions: in vivo, 0.5 h
[29] = Toxicity in C57BL/6 mouse assessed as conditioned place aversion at 1.3 to 3.2 mg/kg/day, ip measured for 30 mins post dose; type: organism-based; conditions: in vivo, 0.5 h

T1 sequence (P32300 whole entry): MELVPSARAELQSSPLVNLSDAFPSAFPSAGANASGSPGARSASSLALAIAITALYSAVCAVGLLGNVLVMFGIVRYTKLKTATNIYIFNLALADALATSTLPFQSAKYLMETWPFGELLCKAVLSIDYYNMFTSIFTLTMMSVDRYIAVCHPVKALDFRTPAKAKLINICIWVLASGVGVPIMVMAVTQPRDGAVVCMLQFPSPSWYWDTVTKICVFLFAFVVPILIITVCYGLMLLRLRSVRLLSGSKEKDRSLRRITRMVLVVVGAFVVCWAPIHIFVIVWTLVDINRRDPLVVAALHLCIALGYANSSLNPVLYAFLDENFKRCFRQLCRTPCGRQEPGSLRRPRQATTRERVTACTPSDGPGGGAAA

With `CC[C@@H]1CN2CC[C@]3(Nc4cccc(OC)c4C3=O)[C@@H]2C[C@@H]1/C(=C\OC)C(=O)OC` the IC50 [1] was 61 nM, the Ki [2] was 3 nM and the EC50 [3] was 1.7 nM. The IC50 [4] was 31 nM, the inhibition [5] was “Active” and the inhibition [6] was “Active”. For the same compound, the Activity [7] was “Not Active”, the IC50 [8] was 34 nM and the inhibition [8] was “Dose-dependent effect”. For the same compound, the “Ratio ED50” value [9] was 3, the ED50 [10] was 7.5 mg/kg and the ED50 [11] was 0.99 mg/kg. The Time [12] was 15 min, the “Ratio ED50” value [13] was 1.5 and the Activity [14] was “Active”. For the same compound, the Activity [15] was “Active”, the Activity [16] was “inactive” and the Activity [17] was “Active”. The Activity [18] was “inactive”, the Activity [19] was “Active” and the ED50 [20] was > 30 mg/kg. The ED50 [21] was 0.83 mg/kg, the Time [22] was 29 days and the ED50 [23] was 4.5 mg/kg. The “Ratio ED50” value [24] was 6, the Activity [25] was 12 and the Activity [26] was “Non-Toxic”. For the same compound, the Activity [27] was 15%, the Activity [28] was “Non-Toxic” and the Activity [29] was “Non-Toxic”.

From ChEMBL document CHEMBL4428076 (J Med Chem, 2016)
